# Reference: PMC11111404, “Discovery of potent small-molecule inhibitors of lipoprotein(a) formation” (Nature, 2024)
# Several values for one entry are separate records, joined by “and”; a condition that tells them apart may be missing. Identical values can stand only once.
# System: Lp(a)
# Experiment: Lp(a) levels in cynomolgus monkeys
# Type: in vivo, cynomolgus monkey (Macaca fascicularis)
# Design: key to Mean_pCFB_vs_Veh / Mean_pCFB_vs_Veh (Lp(a)): % change from pre-dose, treated group compared with vehicle; key to Mean_pCFB / Mean_pCFB (Lp(a)): % change in Lp(a) from before dosing; Lp(a): unit not given here
# Conditions: cynomolgus monkey; for Mean_pCFB_vs_Veh (Lp(a)): difference vs vehicle; for Mean_pCFB (Lp(a)): group mean; for Lp(a) / pCFB (Lp(a) pct_chng_from_baseline): individual animals, 1 mg/kg
# Protocol: Female or male Chinese Macaca fascicularis cynomolgus monkeys (as described in the figure legends) of unspecified ages with body weight ranging from 2.0 kg to 5.0 kg were housed in cages with a standard light cycle (12-h light, 12-h dark) at room temperature (20–26 °C); the relative humidity ranged from 30% to 70%. Monkeys were given fruits, vegetables or dietary enrichment as a form of environmental enrichment, and various cage enrichment devices. Purina Lab diet 5048C was provided BID and individual monkeys were identified by cage card. The monkeys were randomized to treatment groups by body weight and baseline plasma Lp(a) concentration, as determined by a commercially available Randox assay (Randox LP2757), using a BRAT for the study. In an example cynomolgus monkey study in which 39 monkeys were prescreened for baseline Lp(a) levels, the average Lp(a) level was 350 ± 57 µg ml^−1 (range 53–1,667 µg ml^−1). Monkeys were dosed orally with vehicle (purified water) or compounds QD or BID for 14 days, at dose levels and frequencies as previously described for each compound. Plasma samples were collected on days before dosing to establish baseline Lp(a) and after the morning dose during the study. Lp(a) levels were measured by an investigator who was blinded to group allocation using the Randox assay, and were quantified relative to the calibrator series (Randox LP3404). Data were analysed in GraphPad Prism v.9.5.1. The Lp(a) percentage change from before dosing in non-human primates was analysed by repeated measures ANOVA in SAS v.9.4 (SAS). At each time point, the Lp(a) percentage change for each treated group was compared with vehicle by the Bonferroni method.
smiles,measurement,setting,value
O=C(O)[C@@H](Cc1cccc(CN(Cc2cccc(C[C@H](C(=O)O)[C@H]3CCNC3)c2)Cc2cccc(C[C@H](C(=O)O)[C@H]3CCNC3)c2)c1)[C@H]1CCNC1 [LY3473329],Mean_pCFB_vs_Veh (Lp(a)),"1mpk, D01",4.27
same,Mean_pCFB_vs_Veh (Lp(a)),"1mpk, D03",-6.51
same,Mean_pCFB_vs_Veh (Lp(a)),"1mpk, D05",-6.39
same,Mean_pCFB_vs_Veh (Lp(a)),"1mpk, D09",-13.72
same,Mean_pCFB_vs_Veh (Lp(a)),"1mpk, D14",-22.18
same,Mean_pCFB_vs_Veh (Lp(a)),"10mpk, D01",3.91
same,Mean_pCFB_vs_Veh (Lp(a)),"10mpk, D03",-29.92
same,Mean_pCFB_vs_Veh (Lp(a)),"10mpk, D05",-32.94
same,Mean_pCFB_vs_Veh (Lp(a)),"10mpk, D09",-36.99
same,Mean_pCFB_vs_Veh (Lp(a)),"10mpk, D14",-48.11
same,Mean_pCFB_vs_Veh (Lp(a)),"100mpk, D01",-15.98
same,Mean_pCFB_vs_Veh (Lp(a)),"100mpk, D03",-38.35
same,Mean_pCFB_vs_Veh (Lp(a)),"100mpk, D05",-32.35
same,Mean_pCFB_vs_Veh (Lp(a)),"100mpk, D09",-50.18
same,Mean_pCFB_vs_Veh (Lp(a)),"100mpk, D14",-61.77
same,Mean_pCFB (Lp(a)),"1mpk, D01",-0.85
same,Mean_pCFB (Lp(a)),"1mpk, D03",-12.33
same,Mean_pCFB (Lp(a)),"1mpk, D05",-14.05
same,Mean_pCFB (Lp(a)),"1mpk, D09",-21.85
same,Mean_pCFB (Lp(a)),"1mpk, D14",-34.04
same,Mean_pCFB (Lp(a)),"10mpk, D01",-1.2
same,Mean_pCFB (Lp(a)),"10mpk, D03",-35.74
same,Mean_pCFB (Lp(a)),"10mpk, D05",-40.6
same,Mean_pCFB (Lp(a)),"10mpk, D09",-45.13
same,Mean_pCFB (Lp(a)),"10mpk, D14",-59.97
same,Mean_pCFB (Lp(a)),"100mpk, D01",-21.09
same,Mean_pCFB (Lp(a)),"100mpk, D03",-44.17
same,Mean_pCFB (Lp(a)),"100mpk, D05",-40.01
same,Mean_pCFB (Lp(a)),"100mpk, D09",-58.32
same,Mean_pCFB (Lp(a)),"100mpk, D14",-73.62
same,Lp(a),"1mpk group, Day 1, Pre dose (baseline)",115.019 and 15.737 and 53.63 and 67.735 and 63.938
same,Lp(a),"1mpk, Day 1, 4hr",97.491 and 117.597 and 16.395 and 53.808 and 66.137 and 65.184
same,pCFB (Lp(a) pct_chng_from_baseline),"1mpk, Day 1",-11.4161 and 2.241 and 4.181 and 0.3319 and -2.359 and 1.949
same,Lp(a),"1mpk, Day 3, 4hr",91.721 and 112.368 and 11.704 and 47.474 and 63.489 and 56.499
same,pCFB (Lp(a) pct_chng_from_baseline),"1mpk, Day 3",-16.6589 and -2.305 and -25.6275 and -11.4787 and -6.269 and -11.6347
same,Lp(a),"1mpk, Day 5, 4hr",85.692 and 109.155 and 11.192 and 45.131 and 70.165 and 53.752
